The text below walks through data of patent US12157730B2, “Heteroaryl derivative, method for producing same, and pharmaceutical composition comprising same as effective component” (VORONOI INC., priority 2019, dated 2024).

This assay deals with T1, Ba/F3 cell EGFR Exon20 ins NPH (Homo sapiens, UniProt P00533, INS773NPH).
T1 construct: expressed in transfected cells; host or cells: Ba/F3
The assay can be described thus: Ba/F3 cell proliferation suppression, EGFR Exon20 ins NPH. The class given is cell-based. As to conditions: GI50 class; Ba/F3 cell line with NPH inserted at Exon20 of EGFR; 72 hours. In a few lines: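 72 h compound exposure, 0.3 nM–50 um (12 points, 3:1 dilution in DMSO); viability by CellTiter-Glo luminescence. Ba/F3 medium: RPMI-1640, 10% FBS, 5 ng/ml IL-3, 1 ug/ml puromycin for transduced cells. GI50 vs control, n=3.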

Molecules are shown by their SMILES.

In the case of `C=CC(=O)Nc1cc(Nc2cc(N3OCC[C@@H]3c3ccc(F)c(Cl)c3)ncn2)c(OC)cc1N1CCC(N2CCN(C3CC3)CC2)CC1` [Example 59, N-(5-((6-((R)-3-(3-chloro-4-fluorophenyl)isoxazolidine-2-yl)pyrimidine-4-yl)amino)-2-(4-(4-cyclopropylpiperazine-1-yl)piperidine-1-yl)-4-methoxyphenyl) acrylamide;], the “Ba/F3 (NPH) Activity” value is “A (GI50 < 50 nM)”.
Regarding `C=CC(=O)Nc1cc(Nc2cc(N3OCC[C@@H]3c3ccc(C)nc3)ncn2)c(OC)cc1N1CCC(N2C[C@H]3C[C@@H]2CN3C)CC1` [Example 234, N-(4-methoxy-2-(4-((1R,4R)-5-methyl-2,5-diazabicyclo[2.2.1]heptane-2-yl)piperidine-1-yl)-5-((6-((R)-3-(6-methylpyridine-3-yl)isoxazolidine-2-yl)pyrimidine-4-yl)amino)phenyl)acrylamide], the “Ba/F3 (NPH) Activity” value is reported as “C (500 nM ≤ GI50 < 5000 nM)”.
Turning to `C=CC(=O)Nc1cc(Nc2cc(N3OCC[C@@H]3c3ccccc3)ncn2)c(OC)cc1N1CCC(N2CC[C@@H](N(C)C)C2)CC1` [compound 787, N-(2-(4-((R)-3-(dimethylamino)pyrolidine-1-yl)piperidine-1-yl)-4-methoxy-5-((6-((R)-3-phenylisoxazolidine-2-yl)pyrimidine-4-yl)amino)phenyl) acrylamide], the “Ba/F3 (NPH) Activity” value is recorded as “A (GI50 < 50 nM)”.
For `C=CC(=O)Nc1cc(Nc2cc(N3OCC[C@@H]3Cc3cccc(F)c3)ncn2)c(OC)cc1N1CCC(N2CCN(C3CC3)[C@H](C)C2)CC1` [compound 994, N-(2-(4-((R)-4-cyclopropyl-3-methylpiperazine-1-yl)piperidine-1-yl)-5-((6-((S)-3-(3-fluorobenzyl)isoxazolidine-2-yl)pyrimidine-4-yl)amino)-4-methoxyphenyl) acrylamide], the “Ba/F3 (NPH) Activity” value is on record as “A (GI50 < 50 nM)”.
Under `C=CC(=O)Nc1cc(Nc2cc(N3OCC[C@@H]3c3cccc(Cl)c3)ncn2)c(OC)cc1N1CCC(N2CCOCC2)CC1` [compound 417, N-(5-((6-((R)-3-(3-chlorophenyl)isoxazolidine-2-yl)pyrimidine-4-yl)amino)-4-methoxy-2-(4-morpholinopiperidine-1-yl)phenyl) acrylamide] stands “A (GI50 < 50 nM)”; under `C=CC(=O)Nc1cc(Nc2cc(N3OCC[C@@H]3c3ccc(F)cc3F)ncn2)c(OC)cc1N1CCC(N2CCN(CC3CC3)CC2)CC1` [Example 203, N-(2-(4-(4-(cyclopropylmethyl)piperazine-1-yl)piperidine-1-yl)-5-((6-((R)-3-(2,4-difluorophenyl)isoxazolidine-2-yl)pyrimidine-4-yl)amino)-4-methoxyphenyl) acrylamide], “A (GI50 < 50 nM)”.
For `C=CC(=O)Nc1cc(Nc2cc(N3OCC[C@@H]3c3ccc(F)c(F)c3F)ncn2)c(OC)cc1N1CCC(N(C)C)CC1` [compound 573, N-(2-(4-(dimethylamino)piperidine-1-yl)-4-methoxy-5-((6-((R)-3-(2,3,4-trifluorophenyl)isoxazolidine-2-yl)pyrimidine-4-yl)amino)phenyl)acrylamide], the “Ba/F3 (NPH) Activity” value was “A (GI50 < 50 nM)”.
Under `C=CC(=O)Nc1cc(Nc2cc(N3OCC[C@@H]3c3ccc(Cl)c(F)c3)ncn2)c(OC)cc1N1CCC(N2CCN(C(C)=O)CC2)CC1` [compound 796, N-(2-(4-(4-acetylpiperazine-1-yl)piperidine-1-yl)-5-((6-((R)-3-(4-chloro-3-fluorophenyl)isoxazolidine-2-yl)pyrimidine-4-yl)amino)-4-methoxyphenyl) acrylamide] stands “A (GI50 < 50 nM)”; under `COc1cc(N2CCOCC2)c(NC(=O)/C=C/CN(C)C)cc1Nc1cc(N2OCC[C@@H]2c2cc(F)cc(F)c2)ncn1` [compound 397, N-(5-((6-((R)-3-(3,5-difluorophenyl)isoxazolidine-2-yl)pyrimidine-4-yl)amino)-4-methoxy-2-morpholinophenyl)-(E)-4-(dimethylamino)but-2-enamide], “A (GI50 < 50 nM)”; under `C=CC(=O)Nc1cc(Nc2cc(N3OCC[C@@H]3Cc3cccc(Cl)c3F)ncn2)c(OC)cc1N(C)CCN(C)C` [compound 1016, N-(5-((6-((S)-3-(3-chloro-2-fluorobenzyl)isoxazolidine-2-yl)pyrimidine-4-yl)amino)-2-((2-(dimethylamino)ethyl)(methyl)amino)-4-methoxyphenyl) acrylamide], “A (GI50 < 50 nM)”.
As for `C=CC(=O)Nc1cc(Nc2cc(N3OCC[C@@H]3Cc3cccc(F)c3C)ncn2)c(OC)cc1N1CCN(C2CC2)CC1` [compound 1038, N-(2-(4-cyclopropylpiperazine-1-yl)-5-((6-((S)-3-(3-fluoro-2-methylbenzyl)isoxazolidine-2-yl)pyrimidine-4-yl)amino)-4-methoxyphenyl) acrylamide], the entry is “A (GI50 < 50 nM)”; as for `C=CC(=O)Nc1cc(Nc2cc(N3OCC[C@@H]3c3ccc(F)cc3F)ncn2)c(OC)cc1N1C[C@H]2C[C@@H]1CN2CC` [compound 385, N-(5-((6-((R)-3-(2,4-difluorophenyl)isoxazolidine-2-yl)pyrimidine-4-yl)amino)-2-((1R,4R)-5-ethyl-2,5-diazabicyclo[2.2.1]heptane-2-yl)-4-methoxyphenyl) acrylamide], “A (GI50 < 50 nM)”.
Consider `C=CC(=O)Nc1cc(Nc2cc(N3OCC[C@@H]3c3ccc(F)cc3)ncn2)c(OC)cc1N1CCC(N2C[C@H]3C[C@@H]2CO3)CC1` [compound 813, N-(2-(4-((1R,4R)-2-oxa-5-azabicyclo [2.2.1]heptane-5-yl)piperidine-1-yl)-5-((6-((R)-3-(4-fluorophenyl)isoxazolidine-2-yl)pyrimidine-4-yl)amino)-4-methoxyphenyl) acrylamide], for which the “Ba/F3 (NPH) Activity” value is listed as “A (GI50 < 50 nM)”.
In the case of `C=CC(=O)Nc1cc(Nc2cc(N3OCC[C@@H]3c3ccc(Cl)c(Cl)c3)ncn2)c(OC)cc1N1CCC(N2CCOCC2)CC1` [compound 683, N-(5-((6-((R)-3-(3,4-dichlorophenyl)isoxazolidine-2-yl)pyrimidine-4-yl)amino)-4-methoxy-2-(4-morpholinopiperidine-1-yl)phenyl)acrylamide], the “Ba/F3 (NPH) Activity” value is given as “A (GI50 < 50 nM)”.
As for `C=CC(=O)Nc1cc(Nc2cc(N3OCC[C@@H]3c3ccc(C)nc3)ncn2)c(OC)cc1N1CC[C@@H](N(C)C)C1` [Example 221, N-(2-((R)-3-(dimethylamino)pyrolidine-1-yl)-4-methoxy-5-((6-((R)-3-(6-methylpyridine-3-yl)isoxazolidine-2-yl)pyrimidine-4-yl)amino)phenyl) acrylamide], the entry is “B (50 nM ≤ GI50 < 500 nM)”; as for `C=CC(=O)Nc1cc(Nc2cc(N3OCC[C@@H]3c3cc(F)ccc3F)ncn2)c(OC)cc1N1C[C@@H]2CCN(C)[C@@H]2C1` [compound 893, N-(5-((6-((R)-3-(2,5-difluorophenyl)isoxazolidine-2-yl)pyrimidine-4-yl)amino)-4-methoxy-2-((3aS,6aS)-1-methylhexahydropyrrolo [3,4-b]pyrrole-5(1H)-yl)phenyl) acrylamide], “A (GI50 < 50 nM)”.
